From EPA's ToxValDB 9.5 (doi:10.2903/j.efsa.2018.5378)

How the values were obtained:
[1] = test system: Rattus norvegicus
[2] = test system: Apis mellifera; conditions: acute, duration: 48 hours, mortality
[3] = test system: Neomysis kadiakensis; conditions: chronic/long-term; duration: 28 days; reproduction
[4] = test system: Cyprinus carpio; conditions: acute; duration: 96 hours; mortality
[5] = test system: Colinus virginianus
[6] = test system: Pimephales promelas; conditions: chronic/long-term, duration: 33 days
[7] = test system: Oncorhynchus mykiss; conditions: acute; duration: 96 hours; mortality
[8] = test system: Daphnia magna; conditions: chronic/long-term; duration: 21 days; reproduction
[9] = test system: Hypoaspis aculeifer; conditions: chronic/long-term; duration: 14 days; reproduction
[10] = test system: Tagia sp.; conditions: chronic/long-term; duration: 56 days; reproduction
[11] = chronic, duration: 2 years, histopathology: neoplastic

Row | Compound | LD50 ([1]; acute, oral, mortality) [mg/kg-day] | NOAEL [1, 11] [mg/kg-day] | NOAEL ([1]; reproduction developmental, no effects) [mg/kg-day] | LD50 ([2]; dermal) [µg/piece] | LD50 ([2]; oral, unspecified) [µg/piece] | NOEC [3] [mg/L] | LC50 [4] [mg/L] | LD50 ([5]; acute, oral, mortality) [mg/kg-day] | NOEL ([5]; reproduction developmental) [mg/kg-day] | NOEC ([6]; development) [mg/L] | LC50 [7] [mg/L] | NOEC [8] [mg/L] | NOEC ([6]; other) [mg/L] | NOEC [9] [mg/kg] | NOEC [10] [mg/kg]
1 | COc1c(Cl)ccc(-c2nc(C(=O)OCc3ccccc3)c(Cl)c(N)c2F)c1F [Florpyrauxifen-benzyl] | > 5000 | 50 | 300 | > 100 | > 105 | 0.0078 | > 0.0414 | > 2250 | 87.2 | 0.037 | – | – | – | – | –
2 | COc1c(Cl)ccc(-c2nc(C(=O)O)c(Cl)c(N)c2F)c1F [Florpyrauxifen] | – | 50 | – | – | – | – | – | – | – | – | > 100 | 25 | 29.8 | 25 | 213
